Biological target: T1, AAC(2′)-Ia (Providencia stuartii, UniProt Q52424)
T1 construct: AAC(2′)-Ia, N-terminal HIS-tag removed by thrombin
Assay: crystal structure ([…] Å) and competitive inhibition assay
Format: biochemical

T1 sequence (Q52424 whole entry): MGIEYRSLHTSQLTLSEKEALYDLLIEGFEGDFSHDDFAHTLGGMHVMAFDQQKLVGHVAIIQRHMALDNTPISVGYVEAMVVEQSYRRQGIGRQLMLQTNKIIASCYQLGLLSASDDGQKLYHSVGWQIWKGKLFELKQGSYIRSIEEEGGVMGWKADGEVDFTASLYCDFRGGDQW

## NCC[C@H](O)C(=O)N[C@@H]1C[C@H](N)[C@@H](O[C@H]2O[C@H](CN)[C@@H](O)[C@H](O)[C@H]2O)[C@H](O)[C@H]1O[C@H]1O[C@H](CO)[C@@H](O)[C@H](N)[C@H]1O [amikacin]
  Ki: 87 ± 10 µM
